Key:
[1] = tested on: UFH (unfractionated heparin, Calciparine) in plasma; experiment: Anti-heparin power in a PT (Quick time) test with thromboplastin reagent, heparinized vs nonheparinized plasma; type: biochemical; details: anti-heparin agent at 5 μg/ml in thromboplastin reagent; pool of normal plasma with 0 vs 1 IU/ml UFH; delta relative clotting time
Protocol: The aim is to analyze the performance (anti-heparin power and turbidity) of anti-heparin agents incorporated into a Diagnostica Stago thromboplastin reagent.
Analysis of the anti-heparin power: This is the ability of the anti-heparin agent to make the reagent insensitive to the heparin contained in the blood sample:
The test samples are prepared from a pool of normal plasma which may or may not be overloaded with heparin (plasma heparinized with 1 IU/ml of UFH (Calciparine 25 000 IU/ml, Sanofi)).
Comment: a reagent serving as a negative control, i.e. without anti-heparin agent, is of use to verify the heparinization of the plasma.
To determine the Quick Time, the automated device (STA Diagnostica Stago—patent EP 0325874) removes 50 μl of sample plasma, which it allows to incubate at 37° C. for 240 seconds in a cupule containing a bead; it then transfers the cupule into the measuring area and adds 100 μl of thromboplastin reagent to the sample.
The clotting time was determined in the following way: At constant viscosity, the amplitude of oscillation of the bead in the cupule (oscillation maintained using an electromagnetic field) is constant. When the viscosity increases (clotting phenomenon), the amplitude of oscillation of the bead decreases.
An algorithm uses this variation in amplitude to determine the clotting time.
The anti-heparin power is calculated in the following way: determination of the delta relative time between a heparinized and nonheparinized plasma, i.e.:
[{CT(heparinized plasma)−CT(nonheparinized plasma)}/TC(nonheparinized plasma)×100]
The anti-heparin power of the compounds according to the invention is estimated to be significant when this delta time is less than 10%.

[2] = Turbidity of the thromboplastin reagent containing the anti-heparin agent (OD at 630 nm); type: physicochemical; details: anti-heparin agent at 5 μg/ml in thromboplastin-type reagent
Protocol: The turbidity should be as low as possible for an application in diagnosis, and more particularly in a thromboplastin test (PT).
This turbidity is determined by measuring the OD at 630 nm on a spectrophotometer (Uvikon 940, Kontron).
Comment: a reagent serving as a negative control, i.e. without anti-heparin agent, is of use to measure the influence of this anti-heparin agent on the turbidity of the reagent.

Pro-K4-AHA-K3-APA-K4-APA-K3 [1408-2]
Anti-UFH power Delta time 0/1 IU/ml (in %) [1]: 6.9%
Turbidity OD 630 nm [2]: 0.040 OD

PGlu-K4-(AHA)2-K4-AHA-K4-AHA-K2 [1415-5]
Anti-UFH power Delta time 0/1 IU/ml (in %) [1]: 4.5%
Turbidity OD 630 nm [2]: 0.069 OD

Pro-K3-AHA-K4-APA-K4-APA-K2 [1403PK]
Anti-UFH power Delta time 0/1 IU/ml (in %) [1]: 8.7%
Turbidity OD 630 nm [2]: 0.283 OD

THC-K4-(AHA)2-K4-AHA-K4-AHA-K2 [1415-4]
Anti-UFH power Delta time 0/1 IU/ml (in %) [1]: 5.9%
Turbidity OD 630 nm [2]: 0.148 OD

Pro-K4-AHA-K4-APA-K3-APA-K3 [compound 1394]
Anti-UFH power Delta time 0/1 IU/ml (in %) [1]: 6.4%
Turbidity OD 630 nm [2]: 0.399 OD

Pro-K4-AHA-K3-APA-K3-APA-K2 [compound 1404]
Anti-UFH power Delta time 0/1 IU/ml (in %) [1]: 7.6%
Turbidity OD 630 nm [2]: 0.147 OD

Pro-K3-AHA-K4-APA-K4-APA-K2 [1403P]
Anti-UFH power Delta time 0/1 IU/ml (in %) [1]: 7.1%
Turbidity OD 630 nm [2]: 0.205 OD

Thi-K4-(AHA)2-K4-AHA-K4-AHA-K2 [1415-2]
Anti-UFH power Delta time 0/1 IU/ml (in %) [1]: 5.7%
Turbidity OD 630 nm [2]: 0.104 OD

Hyp-K4-(AHA)2-K4-AHA-K4-AHA-K2 [1415-3]
Anti-UFH power Delta time 0/1 IU/ml (in %) [1]: 3.4%
Turbidity OD 630 nm [2]: 0.134 OD

Pro-K4-(AHA)2-K4-AHA-K4-AHA-K2 [compound 1405]
Anti-UFH power Delta time 0/1 IU/ml (in %) [1]: 4.2%
Turbidity OD 630 nm [2]: 0.323 OD

Pro-K4-(AHA)2-K4-AHA-K3-AHA-K2 [compound 1411]
Anti-UFH power Delta time 0/1 IU/ml (in %) [1]: 6.5%
Turbidity OD 630 nm [2]: 0.086 OD

Pro-K4-AHA-K4-APA-K4-APA-K2 [compound 1401]
Anti-UFH power Delta time 0/1 IU/ml (in %) [1]: 8.1%
Turbidity OD 630 nm [2]: 0.488 OD

Source: patent US6835808B2, “Anti-heparin peptides” (Diagnostica-Stago, priority 2000, dated 2004)
